Data from patent publication US20140081017A1, “Histone Deacetylase Inhibitors for Enhancing Activity of Antifungal Agents” (METHYLGENE INC., priority 2012, published 2014).
Values after ≈ are worked out from the molar mass of the structure shown. Read-outs that look alike come from different tables or passages of the source.

Experiments:
C. glabrata = test: Checkerboard FIC assay in combination with fluconazole (MIC alone and in combination, FICI); assay type: cell-based, Candida glabrata; conditions: for FICI of combination resulting in fluconazole MIC of: 2 ug/mL / FICI of combination resulting in fluconazole MIC of: 4 ug/mL / FICI of combination resulting in fluconazole MIC of: 8 ug/mL: FICI calculated using a fluconazole MIC of 16 μg/mL; for FICI of combination resulting in fluconazole MIC of: 2 ug/mL (value in parenthesis) / FICI of combination resulting in fluconazole MIC of: 4 ug/mL (value in parenthesis) / FICI of combination resulting in fluconazole MIC of: 8 ug/mL (value in parenthesis): FICI using a fluconazole MIC of 128 μg/mL; for MIC: Nakaseomyces glabratus; for Multiple of compound MIC to synergize fluconazole MIC to 2 ug/mL / Multiple of compound MIC to synergize fluconazole MIC to 4 ug/mL / Multiple of compound MIC to synergize fluconazole MIC to 8 ug/mL: concentration in combination as multiple of the compound's MIC alone; for Multiple of compound MIC to synergize fluconazole MIC to 2 ug/mL: fluconazole MIC 2 ug/mL; for Multiple of compound MIC to synergize fluconazole MIC to 4 ug/mL: fluconazole MIC 4 ug/mL; for Multiple of compound MIC to synergize fluconazole MIC to 8 ug/mL: fluconazole MIC 8 ug/mL; for Concentration of Methylgene compound to synergize fluconazole MIC to 2 ug/mL / Concentration of Methylgene compound to synergize fluconazole MIC to 4 ug/mL / Concentration of Methylgene compound to synergize fluconazole MIC to 8 ug/mL: in combination with fluconazole; for Concentration of Methylgene compound to synergize fluconazole MIC to 2 ug/mL: fluconazole MIC lowered to 2 ug/mL; for Concentration of Methylgene compound to synergize fluconazole MIC to 4 ug/mL: fluconazole MIC lowered to 4 ug/mL; for Concentration of Methylgene compound to synergize fluconazole MIC to 8 ug/mL: fluconazole MIC lowered to 8 ug/mL
Procedure: The ability of the compounds to synergize with azoles against C. glabrata was evaluated by the checkerboard assay, a common laboratory method used to evaluate synergy, antagonism, and indifference using fractional inhibitory concentrations (FICs) and FIC indices (FICI).
The test compounds were supplied as a powder and dissolved in dimethylsulfoxide (DMSO) on the day of assay. Stock solutions were prepared at 640 ug/mL. Fluconazole was dissolved in deionized water to a stock concentration of 320 ug/mL. All test articles were in solution under these conditions.
(§1) The test organisms and reference isolates were streaked for isolation on Sabouraud agar medium (yeasts) or potato dextrose agar (fungi). Colonies were picked by swab from the medium and resuspended in the appropriate broth containing cryoprotectant. The suspensions were aliquoted into cryogenic vials and maintained at −80° C.
(§2) Prior to testing, the yeast isolates were streaked from the frozen vials onto Sabouraud dextrose agar. The plates were incubated overnight at 35° C. The fungal isolate was grown on potato dextrose agar slants and was incubated for 7-10 days at room temperature.
(§3) Both yeast and fungal isolates were tested in RPMI medium buffered with 0.165 M MOPS (3-(N-morpholino)propanesulfonic acid). The pH of the medium was adjusted to 7.0 with 1 N NaOH. The medium was sterile filtered using a 0.2 um PES (polyethersulfone) filter and stored at 4° C. until used.
FIC values were determined using a broth microdilution method (CLSI; 1, 3). To prepare the test plates, automated liquid handlers (Multidrop 384, Labsystems, Helsinki, Finland; Biomek 2000 and Biomek FX, Beckman Coulter, Fullerton Calif.) were used to conduct serial dilutions and liquid transfers.
The wells of standard 96-well microdilution plates (Costar 3795) were filled with 150 uL of DMSO in columns 2-12. Three hundred microliters of each test compound was added to each well in Column 1 of the plates. The Biomek 2000 was used to make eleven 2-fold serial dilutions in each of these “test compound mother” plates. The wells of the “fluconazole mother plates” were filled with 150 uL of sterile water in rows B-H. Row A of these plates was filled with 300 uL of the fluconazole stock solution. Serial 2-fold dilutions were then prepared from top to bottom by hand, using a multichannel pipette in rows B-G. The “daughter plates” were loaded with 180 uL of RPMI using the Multidrop 384. The Biomek FX was used to transfer 5 uL of compound solution from each well of a fluconazole mother plate to the corresponding well in all of the daughter plates in a single step. Then the Biomek FX was used to transfer 5 uL of compound solution from each well of a test compound mother plate to the corresponding well of the corresponding test compound daughter plate (already containing fluconazole at the appropriate concentrations) in a single step. Row H and Column 12 each contained serial dilutions of the test agent and fluconazole alone, respectively, for determination of the MIC.
Standardized inoculum of each organism was prepared per CLSI methods (CLSI; 1, 3). For yeast isolates, colonies were picked from the primary plate and a suspension was prepared in 0.85% saline to equal a 0.5 McFarland turbidity standard. For the fungal isolate, 1 mL of 0.85% saline was dispensed onto a potato dextrose agar slant onto which the isolate had been inoculated 7-10 days previously. Using a swab, a suspension of the fungus was made. After a short time to allow the heavy particles to settle out, a small quantity of the supernatant was dispensed into 0.85% saline and the suspension was adjusted to equal a 0.5 McFarland turbidity standard. Both yeast and fungal isolates were diluted 1:100 in RPMI and then transferred to compartments of sterile reservoirs divided by length (Beckman Coulter). The Biomek 2000 was used to inoculate the plates. […]

Candida albicans = test: Minimal Inhibitory Concentration (MIC) assay, broth microdilution per CLSI; assay type: cell-based; conditions: Candida albicans, read-out: Minimum Inhibitory Concentrations against Yeast Isolates, Candida albicans;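 further: two read times 24 hr and 48 hr of incubation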
Procedure: (§4) The in vitro activities of the inventive compounds (compound(s) herein) against fungi and/or yeasts were determined with isolates Candida albicans, Candida glabrata and Candida parapsilosis. The comparator compounds included fluconazole, caspofungin and amphotericin B.
(§5) The compounds were supplied as a powder, and were dissolved in dimethylsulfoxide (DMSO) the day of assay. Stock solutions were prepared at 10 mg/mL and diluted to a starting stock concentration of 2.56 mg/mL. Amphotericin B was dissolved in DMSO to a stock concentration of 2.56 mg/mL. Fluconazole was dissolved in deionized water to a stock concentration of 2.56 mg/mL. Caspofungin was received as a stock solution of 3.2 mg/mL in DMSO and was diluted to a starting stock concentration of 2.56 mg/mL.
as §1, §2, §3
(§6) The MIC assay method followed the procedure described by the Clinical and Laboratory Standards Institute (CLSI; 1, 2, 3) and employed automated liquid handlers to conduct serial dilutions and liquid transfers. Automated liquid handlers included the Multidrop 384 (Labsystems, Helsinki, Finland), Biomek 2000 and Biomek FX (Beckman Coulter, Fullerton Calif.). The wells in columns 2-12 in standard 96-well microdilution plates (Costar 3795) were filled with 150 ul of 100% DMSO. These would become the ‘mother plates’ from which ‘daughter’ or test plates would be prepared. The compounds (300 uL at 40× the desired top concentration in the test plates) were dispensed into the appropriate well in Column 1 of the mother plates. The Biomek 2000 was used to make serial 1:1 dilutions through Column 11 in the “mother plate”. The wells of Column 12 contained no compounds and were the organism growth control wells.
(§7) The daughter plates were loaded with 185 uL per well of RPMI described above using the Multidrop 384. The daughter plates were prepared using the Biomek FX which transferred 5 μL of the compound solution from each well of a mother plate to the corresponding well of the daughter plate in a single step.
(§8) Standardized inoculum of each organism was prepared per CLSI methods. For yeast isolates, colonies were picked from the streak plate and a suspension was prepared in 0.85% saline. For the fungal isolate, 1 mL of 0.85% saline was dispensed onto the potato dextrose agar slant that had been inoculated 7-10 days previously. Using a swab, a suspension of the fungus was made. After a short time to allow the heavy particles to settle out, a small quantity of the supernatant was dispensed into 0.85% saline and the suspension adjusted to equal a 0.5 McFarland turbidity standard. Both yeast and fungal isolates were diluted 1:100 in RPMI and then transferred to compartments of sterile reservoirs divided by length (Beckman Coulter). The Biomek 2000 was used to inoculate the plates. Daughter plates were placed on the Biomek 2000 work surface reversed so that inoculation took place from low to high compound concentration. The Biomek 2000 delivered 10 μL of standardized inoculum into each well. Thus, the wells of the daughter plates ultimately contained 185 uL of RPMI, 5 uL of the compound solution, and 10 uL of inoculum. […]

Candida parapsilosis = test: as above; assay type: cell-based; conditions: Lodderomyces parapsilosis, read-out: Minimum Inhibitory Concentrations against Yeast Isolates, Candida parapsilosis;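 further: two read times 24 hr and 48 hr of incubation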
Procedure: as §4, §5, §1, §2, §3, §6, §7, §8

Candida glabrata = test: as above; assay type: cell-based; conditions: Nakaseomyces glabratus, read-out: Minimum Inhibitory Concentrations against Yeast Isolates, Candida glabrata;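 further: two read times 24 hr and 48 hr of incubation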
Procedure: as §4, §5, §1, §2, §3, §6, §7, §8

[1] = MIC of the example compound alone against C. glabrata in the checkerboard assay, approximately 48 hr, read-out: Methylgene MIC
[2] = test compound alone, C. glabrata, approx. 48 hr at 35° C., read-out: Compound MIC
[3] = 24 hr reading (first value of cell 24 hr/48 hr)
[4] = 48 hr reading (second value of cell 24 hr/48 hr)

Row | SMILES | FICI of combination resulting in fluconazole MIC of: 2 ug/mL (C. glabrata; C. glabrata) | FICI of combination resulting in fluconazole MIC of: 4 ug/mL (C. glabrata; C. glabrata) | FICI of combination resulting in fluconazole MIC of: 8 ug/mL (C. glabrata; C. glabrata) | FICI of combination resulting in fluconazole MIC of: 2 ug/mL (value in parenthesis) (C. glabrata; C. glabrata) | FICI of combination resulting in fluconazole MIC of: 4 ug/mL (value in parenthesis) (C. glabrata; C. glabrata) | FICI of combination resulting in fluconazole MIC of: 8 ug/mL (value in parenthesis) (C. glabrata; C. glabrata) | MIC (C. glabrata; [1]) [µg/mL] | MIC (C. glabrata; [2]) [µg/mL] | Multiple of compound MIC to synergize fluconazole MIC to 2 ug/mL (C. glabrata) | Multiple of compound MIC to synergize fluconazole MIC to 4 ug/mL (C. glabrata) | Multiple of compound MIC to synergize fluconazole MIC to 8 ug/mL (C. glabrata) | Concentration of Methylgene compound to synergize fluconazole MIC to 2 ug/mL (C. glabrata; C. glabrata) [µg/mL] | Concentration of Methylgene compound to synergize fluconazole MIC to 4 ug/mL (C. glabrata; C. glabrata) [µg/mL] | Concentration of Methylgene compound to synergize fluconazole MIC to 8 ug/mL (C. glabrata; C. glabrata) [µg/mL] | MIC (Candida albicans; [3]) [µg/mL] | MIC (Candida albicans; [4]) [µg/mL] | MIC (Candida parapsilosis; [3]) [µg/mL] | MIC (Candida parapsilosis; [4]) [µg/mL] | MIC (Candida glabrata; [3]) [µg/mL] | MIC (Candida glabrata; [4]) [µg/mL]
1 | O=C(Cc1ccc(CCCCc2ccc(F)cc2F)cc1)NO [Example 3, 2-(4-(4-(2,4-difluorophenyl)butyl)phenyl)-N-hydroxyacetamide] | 0.563 | 0.625 | 0.490 | 0.516 | 0.531 | 0.303 | 0.5 | 0.5 | (½x) | (½x) | (¼x) | 0.25 | 0.25 | 0.12 | 0.5 (≈ 1.57 µM) | 0.5 (≈ 1.57 µM) | 0.25 (≈ 0.783 µM) | 0.5 (≈ 1.57 µM) | 0.5 (≈ 1.57 µM) | 0.5 (≈ 1.57 µM)
2 | Cc1ccc(CCCCc2ccc(CC(=O)NO)cc2)cc1 [Example 4, N-hydroxy-2-(4-(4-p-tolylbutyl)phenyl)acetamide] | 1.063 | 0.605 | 0.490 | 1.016 | 0.511 | 0.303 | 0.25 | 0.25 | (1x) | (½x) | (¼x) | 0.25 | 0.12 | 0.06 | 0.25 (≈ 0.841 µM) | 0.25 (≈ 0.841 µM) | 0.12 (≈ 0.403 µM) | 0.25 (≈ 0.841 µM) | 0.25 (≈ 0.841 µM) | 0.25 (≈ 0.841 µM)
